The source of these data is patent publication US8372978B2, “Salts of methyl 2-((R)-(3-chlorophenyl)((R)-1-((S)-2-(methylamino)-3-((R)-tetrahydro-2H-pyran-3-yl)propylcarbamoyl)piperidin-3-yl)methoxy)ethylcarbamate” (Vitae Pharmaceuticals, Inc., priority 2009, dated 2013).

A short description of data set [1]: Pharmacokinetics after oral administration, plasma by LC/MS/MS, rat. It is filed as in vivo. The settings on record: for AUC(0-t) / DNAUC0-t / Cmax: oral, 10 mg/kg (as salt), 0.5% methylcellulose in water. On the procedure:
IV formulations were prepared in 1% DMSO in sterile saline. PO formulations were prepared in 0.5% methylcellulose in water, unless otherwise indicated. After compound administration, plasma samples were obtained through 24 hours post-dosing from each animal using K2EDTA as the anticoagulant. Plasma samples were treated with two volumes of acetonitrile containing an internal standard (ritanserin). Samples were centrifuged at 4,000 rpm for 10 minutes at 25° C. Ten microliters of the supernatant was analyzed using LC/MS/MS. Standard curves are prepared for each species and range from 1.0 to 500 ng/mL The compound of Formula (I) and the internal standard were separated by reverse-phase HPLC using a gradient mobile phase and detected by +APCI monitoring the transitions m/z 525→327 (compound of Formula (I)) and m/z 478→193 (ritanserin).

A short description of data set [2]: Pharmacokinetics after oral administration, plasma by LC/MS/MS, dog. It is filed as in vivo. Particulars: for DNAUC0-t / AUC(0-t) / Cmax: oral; for AUC(0-t) / Cmax: plasma. How it is done: (§1) IV formulations were prepared in 1% DMSO in sterile saline. PO formulations were prepared in 0.5% methylcellulose in water, unless otherwise indicated. After compound administration, plasma samples were obtained through 24 hours post-dosing from each animal using K2EDTA as the anticoagulant. Plasma samples were treated with two volumes of acetonitrile containing an internal standard (ritanserin). Samples were centrifuged at 4,000 rpm for 10 minutes at 25° C. Ten microliters of the supernatant was analyzed using LC/MS/MS.

Data set [3] in a line: Pharmacokinetics after oral administration, plasma by LC/MS/MS, monkey. It is filed as in vivo. Particulars: for DNAUC0-t / AUC(0-t) / Cmax: oral, 0.5% methylcellulose in water; for AUC(0-t) / Cmax: plasma. On the procedure:
as §1

Another data set in a line: Water solubility. It is filed as physicochemical.
The nature of another data set: Hygroscopicity. It is filed as physicochemical.
Where [4] appears, read: 1 mg/kg (as salt), 2% DMSO in water.
The mark [5] stands for this setting: 2 mg/kg (as salt), 0.5% methylcellulose in water.

Structures can show the parent of a compound that is named as a salt.

With `CN[C@H](CNC(=O)N1CCC[C@@H]([C@@H](OCCNC(=O)OC)c2cccc(Cl)c2)C1)C[C@H]1CCCOC1.O=C(O)/C=C/C(=O)O` [Fumarate, methyl 2-((R)-(3-chlorophenyl)((R)-1-((S)-2-(methylamino)-3-((R)-tetrahydro-2H-pyran-3-yl)propylcarbamoyl)piperidin-3-yl)methoxy)ethylcarbamate fumaric acid salt], the AUC(0-t) worked out at 477 ng·h/mL in data set [1], 458 ng·h/mL in data set [2] (setting [4]) and 381 ng·h/mL in data set [3] (2 mg/kg (as salt)). The figures for the DNAUC0-t in data set [1], in data set [2] (setting [4]) and in data set [3] (2 mg/kg (as salt)) were 48 ng·h/mL, 458 ng·h/mL and 191 ng·h/mL, respectively. Also, the Cmax in data set [1] (plasma) amounted to 156 ng/mL; in data set [2] (setting [4]), 286 ng/mL; in data set [3] (2 mg/kg (as salt)), 145 ng/mL.

With `CN[C@H](CNC(=O)N1CCC[C@@H]([C@@H](OCCNC(=O)OC)c2cccc(Cl)c2)C1)C[C@H]1CCCOC1` [Mucate, methyl 2-((R)-(3-chlorophenyl)((R)-1-((S)-2-(methylamino)-3-((R)-tetrahydro-2H-pyran-3-yl)propylcarbamoyl)piperidin-3-yl)methoxy)ethylcarbamate mucic acid salt (Form B)], the “in vivo bioavailability (in words)” value in data set [1], in data set [2] and in data set [3] was “good in vivo bioavailability” in each case. The DNAUC0-t in data set [1] stood at 68 ng·h/mL; in data set [2] (setting [5]), 447 ng·h/mL; in data set [3] (3 mg/kg (as salt)) it was 269 ng·h/mL. Further, the values for the Cmax in data set [1] (plasma), in data set [2] (setting [5]) and in data set [3] (3 mg/kg (as salt)) were 238 ng/mL, 294 ng/mL and 266 ng/mL, respectively. The AUC(0-t) in data set [1] (plasma, read-out: AUC0-t) came to 681 ng·h/mL; in data set [2] (setting [5]), 895 ng·h/mL; in data set [3] (3 mg/kg (as salt)), 807 ng·h/mL. The “water solubility (in words)” value in “Water solubility” was “good water solubility”. For the same compound, the solubility in “Water solubility” (water, temperature not stated) is 65 ± 5 mg/mL. Moreover, the “hygroscopicity (in words)” value in the data set “Hygroscopicity” is recorded as “sufficiently non-hygroscopic”.
